# Results published in patent publication US9351963B2, “Defensin-like molecules as novel antimicrobial agents” (UNIVERSITY OF MARYLAND, BALTIMORE, priority 2010, dated 2016).
# Columns and labels:
# [1] = Surface Plasmon Resonance binding to immobilized 3-Lipid II (BIAcore); conditions: defensin mimetics at 10 μM, immobilized 3-Lipid II, 25° C.
# Procedure: Short-chain water-soluble Lipid II containing a lipid tail of three isoprene units was generated and purified essentially as described (Breukink, E., van Heusden, H. E., Vollmerhaus, P. J., Swiezewska, E., Brunner, L., Walker, S., Heck, A. J., and de Kruijff, B. (2003) J Biol Chem 278, 19898-19903). Typically, M. flavus vesicles (120 μmol lipid-Pi) were incubated together with 500 μmol UDP-GlcNAc, 500 μmol UDP-MurNAC-pentapeptide and 400 μmol farnesyl phosphate (3-P) in 100 mM Tris-HCl pH 8.0, 5 mM MgCl2. The incubation lasted two hours at room temperature for 3-P. The synthesis of 3-Lipid II was followed using RP-8 reversed phase TLC (Merck) developed in 75% methanol. For purification, the membranes were removed by centrifugation at 40,000×g and the supernatant was collected and loaded on a C18 HPLC column and eluted with a linear gradient from 50 mM ammonium bicarbonate to 100% methanol in 30 minutes. Farnesyl-Lipid II (3-Lipid II) eluted at approximately 60% methanol. Its identity was confirmed by mass spectroscopy.
# Surface Plasmon Resonance binding experiments were carried out on a BIAcore T100 system (BIAcore Inc., Piscataway, N.Y.) at 25° C. The assay buffer was 10 mM HEPES, 150 mM NaCl, 0.05% surfactant P20, pH 7.4 (±3 mM EDTA) supplemented with 10% DMSO. […] For initial determination of binding, defensin mimetics were introduced into the flow-cells (30 μl/min) in the running buffer at 10 μM. Resonance signals were corrected for nonspecific binding by subtracting the background of the control flow-cell. After each analysis, the sensor chip surfaces were regenerated with 50 mM NaOH for 30 s at a flow rate 100 μl/min, and equilibrated with the buffer prior to next injection. For binding kinetics studies, binding isotherms were analyzed with manufacturer-supplied software for BIAcore T100.
# [2] = tested on: Staphylococcus aureus ATCC 29213; experiment: 96-well turbidimetric antibacterial killing assay, S. aureus; type: cell-based
# Procedure: (§1) The antibacterial activity of defensin mimetics against Staphylococcus aureus ATCC 29213 and Escherichia coli 25922 was carried out in a 96-well turbidimetric assay essentially as described (Ericksen, B., Wu, Z., Lu, W., and Lehrer, R. I. (2005) Antimicrob Agents Chemother 49, 269-275) with the following modifications: compounds were exposed for 30 min to […] prior to addition of […] in 10 mM phosphate buffer containing 5% DMSO. Bacterial growth was monitored for 12 hours and data were analyzed as described (Ericksen, et al). Determination of MICs was performed by Micromyx, LLC (Kalamazoo, Mich.) according to CLSI standards (CLSI. (2009) Methods for Dilution Antimicrobial Susceptibility Tests for Bacteria That Grow Aerobically; Approved Standard—Eighth Edition.)
# [3] = tested on: E. coli; experiment: Broth microdilution MIC (CLSI, Micromyx), E. coli; type: cell-based; conditions: Escherichia coli
# Procedure: as §1
# To confirm the antibacterial killing assays, Minimal Inhibitory Concentrations (MICs, μg/ml) were determined for lead compounds against clinically relevant bacterial strains (Table 3, FIG. 11). […] Experiments were carried out according to CLSI standards (CLSI. (2009) Methods for Dilution Antimicrobial Susceptibility Tests for Bacteria That Grow Aerobically; Approved Standard—Eighth Edition.) by Micromyx, LLC (Kalamazoo, Mich.). […] There was no significant difference for any compound when evaluated against clinically relevant strains (e.g. MRSA, VRE, PRSP).
# [4] = tested on: S. aureus ATCC 29213; experiment: Murine peritoneal sepsis model; type: in vivo, C57BL/6J mice
# Procedure: Adult C57BL/6J mice (˜18 grams, 8-10 weeks old) were used for all experiments. Mice were obtained from the Jackson Laboratory (Bar Harbour, Me., USA) and housed in the IHV SPC animal core facility. Mice were fed standard chow (Harlan Laboratories) and water ad libitum. To assess the protective potency of defensin mimetic BAS00127538, groups of 5 mice were inoculated intraperitoneally ˜10^7 CFU/mL of S. aureus ATCC 29213 in 500 μL saline solution/25% DMSO plus 4.5% (w/v) porcine gastric mucin (Sigma Chemical Co., St Louis, Mo.). Infected animals (n=5) were subsequently treated by intra-peritoneal injection 1 and 4 hours post-infection with 2.5 mg/kg of compound in 100 μL sterile saline solution plus 25% DMSO (V/V), vancomycin/lysostaphin (5 mg/kg, saline solution/25% DMSO) or vehicle (saline solution/25% DMSO) as positive and negative controls respectively. Animals were closely observed during a period of 24 hours and mice that show signs of severe sepsis were humanely euthanized. Blood samples were collected by retro-orbital puncture at the indicated intervals post-infection using lithium-heparin polystyrene tubes to prevent coagulation. Spleens were harvested aseptically, weighed and homogenized in 500 μl of sterile saline solution using an IKA T10 basic disperser (IKA, Wilmington N.C.). Whole blood samples and spleen homogenates were serially diluted and plated onto LB agar plates. Bacterial counts were determined following 24 h incubation at 37° C. and expressed as CFU per milliliter for blood and CFU per gram for spleen.
# Next, a murine model for sepsis was established to evaluate the efficacy of the lead defensin mimetics as antibiotic agents in vivo. […] Mice (n=5) were inoculated intraperitoneally with S. aureus 29213 and treated 1 h and 4 h post-infection with compound BAS00127538 at 2.5 mg/kg intraperitoneally Animals were monitored for survival and blood and spleen samples were collected. Bacterial counts were determined and compared to control treatment with vancomycin/lysostaphin as measures of efficacy (FIG. 6).
smiles,measurement,setting,value
"CN1/C(=C/C=C/c2cc(-c3ccccc3)cc(-c3ccccc3)[o+]2)C(C)(C)c2ccccc21 [BAS00127538, 2,4-diphenyl-6-[(1E)-3-[(2E)-1,3,3-trimethyl-2,3-dihydro-1H-indol-2-ylidene]prop-1-en-1-yl]-1$1^4-pyran-1-ylium]",Binding to Lipid II as measured by SPR,[1],most strongly bound
same,Concentration at which compound was 100% bactericidal against S. aureus,[2],0.244 µM
same,MIC,[3],4 µg/mL
same,Bacterial counts in spleen and blood,[4]; 2.5 mg/kg intraperitoneally 1 h and 4 h post-infection,significantly reduced
same,Survival of animals,"[4]; 2.5 mg/kg intraperitoneally 1 h and 4 h post-infection, n=5 mice",4 out of five
same,Efficacy in vivo in a murine model for sepsis,"[4]; mouse, in vivo",proven effective
